This experiment addresses 11-beta-hydroxysteroid dehydrogenase 1 (Homo sapiens) (UniProt P28845). Briefly: HSD11B1 binders by thermal stabilization, biophysical, DSF, SYPRO orange, purified protein (AID 398). The following applies: protein 3 µM, buffer 10 mM HEPES, pH 7.5, NaCl 150 mM, stronger effect = higher value.

Sequence of 11-beta-hydroxysteroid dehydrogenase 1 (Homo sapiens) (P28845 whole entry, looked up): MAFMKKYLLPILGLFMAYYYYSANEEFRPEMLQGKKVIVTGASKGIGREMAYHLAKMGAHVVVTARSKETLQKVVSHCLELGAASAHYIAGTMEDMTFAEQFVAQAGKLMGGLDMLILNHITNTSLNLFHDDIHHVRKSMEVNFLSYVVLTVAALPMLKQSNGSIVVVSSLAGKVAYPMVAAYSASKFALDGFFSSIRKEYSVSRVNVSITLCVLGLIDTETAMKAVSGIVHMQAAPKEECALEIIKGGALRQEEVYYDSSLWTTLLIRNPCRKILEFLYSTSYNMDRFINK

Turning to `CC(C)(COP(=O)(O)OP(=O)(O)OCC1OC(n2cnc3c(N)ncnc32)C(O)C1OP(=O)(O)O)C(O)C(=O)NCCC(=O)NCCSC(=O)Cc1ccccc1` (stereo unspecified), under “at 10 µM, NADP 100 µM”, the Tm shift was 3.6 Celsius.
Still for that read-out and setting: as for `CC(C)(COP(=O)(O)OP(=O)(O)OCC1OC(n2cnc3c(N)ncnc32)C(O)C1OP(=O)(O)O)C(O)C(=O)NCCC(=O)NCCSC(=O)CCC(=O)O` (stereo unspecified), the figure is 2.7 Celsius.
`COC(=O)[C@H](C)CO`: the Tm shift (at 10 µM, NADP 100 µM) is 6.7 Celsius.
In the case of `C=CC1=C(C)/C(=C/c2[nH]c(Cc3[nH]c(/C=C4\NC(=O)C(C)=C4C=C)c(C)c3CCC(=O)O)c(CCC(=O)O)c2C)NC1=O`, the Tm shift (at 10 µM, NADP 100 µM) is 3.9 Celsius.
In the case of `NC(=O)c1ccc[n+](C2OC(COP(=O)(O)OP(=O)(O)OCC3OC(n4cnc5c(N)ncnc54)C(OP(=O)(O)O)C3O)C(O)C2O)c1` (stereo unspecified), the Tm shift runs as follows: (at 40 µM) 5.7 Celsius; (measured here: second DSF experiment, at 40 µM, run 2, at 40 µM) 2.6 Celsius.
